Patent publication US8008502B2, “Thiazoline acid derivatives” (University of Florida Research Foundation, Inc., priority 1998, dated 2011)

Columns and labels:
[1] = tested on: non-iron-overloaded, bile duct-cannulated rat; assay: Iron excretion in the non-iron-overloaded, bile duct-cannulated rat; assay type: in vivo; details: 150 μmol/kg p.o., solution in 40% Cremophor-H2O, rats fasted for 24 hours
Description: Preparation of Drugs. Drug solutions were prepared in 60% water, 40% Cremophor RH-40.
Initial testing of 1 was performed in the non-iron-overloaded, bile duct-cannulated rat [J. Med. Chem., Vol. 34, Bergeron et al, “Synthesis and Biological Evaluation of Hydroxamate-Based Iron Chelators,” pages 3182-3187 (1991)]. The drug was prepared as a solution in 40% Cremophor-H2O and administered at a dose of 150 μmol/kg p.o. The rats were fasted for 24 hours before dosing. The efficiency of iron excretion induced by 1 was 2.4±0.92%.

[2] = tested on: iron-overloaded primate model; details: po, 150 umol/kg, 24 h
Description: The drug was prepared as a solution in 40% Cremophor-H2O and administered at a dose of 1.50 μmol/kg p.o. The monkeys were fasted for 24 hours before dosing.

animal models = details: literature; cited from earlier work

| Compound | efficiency of iron excretion [1] [%] | efficiency (iron excretion) [2] [%] | clearing iron (animal models) |
| --- | --- | --- | --- |
| O=C(O)[C@H]1CSC(c2ccc(O)cc2O)=N1 [Compound 1, 4,5-dihydro-2-(2,4-dihydroxyphenyl)-thiazole-4(S)-carboxylic acid] | 2.4±0.92 | 4.2±1.4 | – |
| O=C(N[C@H]1COC(=O)[C@@H](NC(=O)c2cccc(O)c2O)COC(=O)[C@@H](NC(=O)c2cccc(O)c2O)COC1=O)c1cccc(O)c1O [enterobactin] | – | – | only marginally effective |
| CC(=O)N(O)CCC[C@@H]1NC(=O)[C@H](CCCN(O)C(C)=O)NC1=O [rhodotorulic acid] | – | – | reasonably active |
